From PubChem BioAssay AID192 (DTP/NCI, 2004) come the findings set out here.

Each structure is given as a SMILES string. Inconclusive results and toxic doses are left out.

The experiment has as its system BDF1 mice, B16 melanoma ip, median survival T/C. The experiment in a line: NCI In Vivo Anticancer Drug Screen. Data for tumor model B16 Melanoma (intraperitoneal) in B6D2F1 (BDF1) mice. The following applies: endpoint: median survival time, higher = longer survival. Put shortly: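 In this screen, activity was judged from survival or tumor size in treated versus vehicle-treated tumor-bearing mice, reported as T/C.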

[1] abbreviates: dose: 8.0 mg/kg/injection, schedule: Q01DX009 (ip), vehicle: saline with Tween-80.
Setting [2] is: dose: 8.0 mg/kg/injection, schedule: Q01DX009 (ip), vehicle: saline.
The mark [3] stands for this setting: dose: 16.0 mg/kg/injection, schedule: Q01DX009 (ip), vehicle: saline.
Where [4] appears, read: dose: 1.0 mg/kg/injection, schedule: Q01DX009 (ip), vehicle: saline.
Where [5] appears, read: dose: 2.0 mg/kg/injection, schedule: Q01DX009 (ip), vehicle: saline.
The mark [6] stands for this setting: dose: 4.0 mg/kg/injection, schedule: Q01DX009 (ip), vehicle: saline.
[7] abbreviates: dose: 50.0 mg/kg/injection, schedule: Q01DX009 (ip), vehicle: saline with Tween-80.
Setting [8] is: dose: 100.0 mg/kg/injection, schedule: Q01DX009 (ip), vehicle: saline with Tween-80.
Setting [9] is: dose: 25.0 mg/kg/injection, schedule: Q01DX009 (ip), vehicle: saline with Tween-80.
Setting [10] is: dose: 3.12 mg/kg/injection, schedule: Q01DX009 (ip), vehicle: Klucel (hydroxypropylcellulose) (HPC).
[11] abbreviates: dose: 6.25 mg/kg/injection, schedule: Q01DX009 (ip), vehicle: Klucel (hydroxypropylcellulose) (HPC).
[12] abbreviates: dose: 12.5 mg/kg/injection, schedule: Q01DX009 (ip), vehicle: Klucel (hydroxypropylcellulose) (HPC).
Where [13] appears, read: dose: 50.0 mg/kg/injection, schedule: Q01DX009 (ip), vehicle: Klucel (hydroxypropylcellulose) (HPC).
The mark [14] stands for this setting: dose: 100.0 mg/kg/injection, schedule: Q01DX009 (ip), vehicle: Klucel (hydroxypropylcellulose) (HPC).

With `CCOC(=O)C(CC(C)C)NC(=O)C(Cc1ccc(N(CCCl)CCCl)cc1)NC(C)=O` (stereo not drawn), the T/C was 106 % of control (dose: 1.0 mg/kg/injection, schedule: Q01DX009 (ip), vehicle: saline with Tween-80); 113 % of control (dose: 2.0 mg/kg/injection, schedule: Q01DX009 (ip), vehicle: saline with Tween-80); 106 % of control (dose: 4.0 mg/kg/injection, schedule: Q01DX009 (ip), vehicle: saline with Tween-80); 119 % of control under setting [1]; 105 % of control under setting [2]; 116 % of control under setting [3].
As for `NC(CSCCc1ccccn1)C(=O)O` (stereo not drawn), the T/C reads like this: (dose: 25.0 mg/kg/injection, schedule: Q01DX009 (ip), vehicle: saline) 100 % of control; (dose: 50.0 mg/kg/injection, schedule: Q01DX009 (ip), vehicle: saline) 100 % of control; (dose: 100.0 mg/kg/injection, schedule: Q01DX009 (ip), vehicle: saline) 110 % of control; (dose: 100.0 mg/kg/injection, schedule: Q04DX003 (ip), vehicle: saline) 104 % of control; (dose: 200.0 mg/kg/injection, schedule: Q04DX003 (ip), vehicle: saline) 104 % of control; (dose: 400.0 mg/kg/injection, schedule: Q04DX003 (ip), vehicle: saline) 104 % of control.
For `Nc1ncnc2c(C3OC(CO)C(O)C3O)[nH]nc12` (stereo not drawn), the T/C runs as follows: under setting [4], 113 % of control; under setting [5], 122 % of control; under setting [6], 122 % of control; under setting [2], 107 % of control.
With `CS(=N)(=O)c1ccccc1` (stereo not drawn), the T/C is, setting by setting: (dose: 100.0 mg/kg/injection, schedule: Q04DX003 (ip), vehicle: saline with Tween-80) 89 % of control; (dose: 200.0 mg/kg/injection, schedule: Q04DX003 (ip), vehicle: saline with Tween-80) 100 % of control; (dose: 400.0 mg/kg/injection, schedule: Q04DX003 (ip), vehicle: saline with Tween-80) 123 % of control.
Regarding `O=S(=O)(O)SCCNCCCCCC1CCCCC1`, the T/C runs as follows: (dose: 0.75 mg/kg/injection, schedule: Q01DX009 (ip), vehicle: saline with Tween-80) 90 % of control; (dose: 1.5 mg/kg/injection, schedule: Q01DX009 (ip), vehicle: saline with Tween-80) 95 % of control; (dose: 3.0 mg/kg/injection, schedule: Q01DX009 (ip), vehicle: saline with Tween-80) 93 % of control; (dose: 6.0 mg/kg/injection, schedule: Q01DX009 (ip), vehicle: saline with Tween-80) 104 % of control; (dose: 12.0 mg/kg/injection, schedule: Q01DX009 (ip), vehicle: saline with Tween-80) 100 % of control.
As to `COC(=O)C(Br)C1CCCCC1` (stereo not drawn), the T/C runs as follows: under setting [7], 100 % of control; under setting [8], 103 % of control; (dose: 200.0 mg/kg/injection, schedule: Q01DX009 (ip), vehicle: saline with Tween-80) 99 % of control.
As to `C1OC1CN1CCN(CC2CO2)CC1` (stereo not drawn), the T/C under setting [1] was 121 % of control and the T/C (dose: 16.0 mg/kg/injection, schedule: Q01DX009 (ip), vehicle: saline with Tween-80) was 119 % of control.
As for `C/C=C\C1OC1(C)c1cc(=O)c2c(C)cc3c(c2o1)C(=O)c1c(O)c(C2CC(C)(N(C)C)C(OC(C)=O)C(C)O2)cc(C2CC(N(C)C)C(O)C(C)O2)c1C3=O` (stereo not drawn), the T/C is 100 % of control (dose: 0.1 mg/kg/injection, schedule: Q01DX009 (ip), vehicle: saline); 100 % of control (dose: 0.2 mg/kg/injection, schedule: Q01DX009 (ip), vehicle: saline); 88 % of control (dose: 0.35 mg/kg/injection, schedule: Q01DX009 (ip), vehicle: saline with Tween-80); 100 % of control (dose: 0.4 mg/kg/injection, schedule: Q01DX009 (ip), vehicle: saline); 95 % of control (dose: 0.7 mg/kg/injection, schedule: Q01DX009 (ip), vehicle: saline with Tween-80); 106 % of control (dose: 0.8 mg/kg/injection, schedule: Q01DX009 (ip), vehicle: saline).
For `COc1cc(OC)c(/C=C/c2c3ccccc3cc[n+]2C)c(OC)c1`, the T/C was 97 % of control (dose: 0.78 mg/kg/injection, schedule: Q01DX009 (ip), vehicle: saline with Tween-80) and 102 % of control (dose: 1.56 mg/kg/injection, schedule: Q01DX009 (ip), vehicle: saline with Tween-80).
Regarding `COc1cc(O)c2c(c1)Cc1cc(C)cc(O)c1C2=O`, the T/C runs as follows: (dose: 6.25 mg/kg/injection, schedule: Q01DX009 (ip), vehicle: saline with Tween-80) 93 % of control; (dose: 12.5 mg/kg/injection, schedule: Q01DX009 (ip), vehicle: saline with Tween-80) 98 % of control; under setting [9], 98 % of control.
As for `CCOC(=O)c1[nH]c(C#N)c(C(=O)OCC)c1C`, the T/C was 95 % of control under setting [9], 95 % of control under setting [7] and 88 % of control under setting [8].
On to `C1CC[N-]CC1.C1CC[N-]CC1.CS(C)=O.[Cl][Rh]([Cl])[Cl]`, for which the T/C is 99 % of control (dose: 5.0 mg/kg/injection, schedule: Q01DX009 (ip), vehicle: saline with Tween-80) and 95 % of control (dose: 10.0 mg/kg/injection, schedule: Q01DX009 (ip), vehicle: saline with Tween-80).
In the case of `O=C1OC(C(O)CO)C(O)=C1O` (stereo not drawn), the T/C (dose: 0.12 mg/kg/injection, schedule: Q01DX009 (ip), vehicle: saline) is 100 % of control; the T/C (dose: 0.25 mg/kg/injection, schedule: Q01DX009 (ip), vehicle: saline) was 110 % of control; the T/C (dose: 0.5 mg/kg/injection, schedule: Q01DX009 (ip), vehicle: saline) is 105 % of control; the T/C (dose: 1.0 mg/kg/injection, schedule: Q01DX001 (ip), vehicle: saline) is 102 % of control; the T/C under setting [4] is 110 % of control; the T/C (dose: 2.0 mg/kg/injection, schedule: Q01DX001 (ip), vehicle: saline) is 100 % of control. The T/C under setting [5] is 110 % of control; the T/C (dose: 4.0 mg/kg/injection, schedule: Q01DX001 (ip), vehicle: saline) is 95 % of control; the T/C under setting [6] was 105 % of control; the T/C (dose: 8.0 mg/kg/injection, schedule: Q01DX001 (ip), vehicle: saline) was 102 % of control; the T/C under setting [2] is 110 % of control; the T/C (dose: 16.0 mg/kg/injection, schedule: Q01DX001 (ip), vehicle: saline) was 100 % of control. In addition, the T/C was 95 % of control under setting [3]; 100 % of control (dose: 32.0 mg/kg/injection, schedule: Q01DX001 (ip), vehicle: saline); 97 % of control (dose: 64.0 mg/kg/injection, schedule: Q01DX001 (ip), vehicle: saline).
Consider `O[C@H](c1cc(C(F)(F)F)nc2c(C(F)(F)F)cccc12)[C@@H]1CCCCN1`, for which the T/C runs as follows: (dose: 0.78 mg/kg/injection, schedule: Q01DX009 (ip), vehicle: Klucel (hydroxypropylcellulose) (HPC)) 97 % of control; (dose: 1.56 mg/kg/injection, schedule: Q01DX009 (ip), vehicle: Klucel (hydroxypropylcellulose) (HPC)) 104 % of control; under setting [10], 113 % of control; (dose: 4.5 mg/kg/injection, schedule: Q04DX003 (ip), vehicle: Klucel (hydroxypropylcellulose) (HPC)) 113 % of control; under setting [11], 90 % of control; (dose: 9.0 mg/kg/injection, schedule: Q04DX003 (ip), vehicle: Klucel (hydroxypropylcellulose) (HPC)) 100 % of control.
As to `COc1ccc2[nH]c3ccc4cc[n+](CCN5CCC(C6CCN(CC[n+]7ccc8ccc9[nH]c%10ccc(OC)cc%10c9c8c7)CC6)CC5)cc4c3c2c1`, the T/C under setting [12] was 150 % of control; the T/C (dose: 25.0 mg/kg/injection, schedule: Q01DX009 (ip), vehicle: Klucel (hydroxypropylcellulose) (HPC)) is 194 % of control; the T/C under setting [13] is 180 % of control; the T/C under setting [14] was 100 % of control.
Consider `OCc1ccc[n+](CCc2c[nH]c3ccccc23)c1`, for which the T/C is, setting by setting: under setting [9], 102 % of control; under setting [7], 99 % of control; under setting [8], 102 % of control.
For the compound `COc1cc(O)c2c(c1)C(=O)c1cc3c(c(O)c1C2=O)C(OC1OC(C)C(O)C(O)C1OC)C(OC)C(C)(O)C3=O` (stereo not drawn), the T/C was 117 % of control under setting [13] and 96 % of control under setting [14].
`CCC[CH2][Sn]([Cl])([CH2]CCC)[S]C(=S)NCCNC(=S)[S][Sn]([Cl])([CH2]CCC)[CH2]CCC`: the T/C is, setting by setting: under setting [10], 94 % of control; under setting [11], 96 % of control; under setting [12], 101 % of control.
